Results reported in paper PMC10515640, “Structure-Based Optimization of Covalent, Small-Molecule Stabilizers of the 14-3-3σ/ERα Protein–Protein Interaction from Nonselective Fragments” (Journal of the American Chemical Society, 2023).

Tests used:
14-3-3σ/C-RAF [1] = biological target: T1, 14-3-3σ/C-RAF (Homo sapiens, UniProt P31947); experiment: Mass spectrometry dose response, compound binding to 14-3-3σ in the presence of C-RAF phosphopeptide; conditions: 100 nM compound, 100 nM 14-3-3σ, C-RAF peptide 18 µM
T1 construct: The 14-3-3 σ isoform (full-length for mass spectrometry and fluorescence anisotropy assays, ΔC for crystallography); made in house; host or cells: E. coli Rosetta 2(DE3)pLysS, pPROEX HTb vector
T1 sequence (P31947 1-248): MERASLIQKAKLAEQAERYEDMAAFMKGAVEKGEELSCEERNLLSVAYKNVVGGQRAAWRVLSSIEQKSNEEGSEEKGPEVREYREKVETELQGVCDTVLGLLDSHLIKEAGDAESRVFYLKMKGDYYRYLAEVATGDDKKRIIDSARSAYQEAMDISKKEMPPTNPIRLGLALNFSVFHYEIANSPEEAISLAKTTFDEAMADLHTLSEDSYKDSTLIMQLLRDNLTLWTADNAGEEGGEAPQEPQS
Text: (§1) Two orthogonal assays were developed for screening. For the primary assay, mass spectrometry (MS) was used to monitor the formation of the covalent bond between the compound and the native cysteine (Cys38 on 14-3-3σ) (Figure 1D). The assay was first performed in the absence of peptide to determine binding to 14-3-3σ only (apo screening, D1) and then in the presence of both 14-3-3σ and the peptide as an indication of how much the peptide stabilized compound binding (D2). […] As a secondary assay, fluorescence anisotropy (FA) was used. In this case, compounds were titrated to mixtures of 14-3-3σ and FAM-labeled peptides. […] Thus, the two assays are highly complementary; the MS assay reports on compound binding and the FA assay reports on peptide binding. […]
(§2) Mass spectrometry dose response assays were performed on a Waters Acquity UPLC/ Xevo G2-XS Q-Tof mass spectrometer. A Waters UPLC Protein BEH-C4 Column (300 Å, 1.7 μm, 2.1 mm x 50 mm) was used to desalt the samples prior to application on the mass spectrometer. For 19-point MS dose responses, 50 mM compound stocks in DMSO were serially diluted in 3-fold increment in a master plate, then 1000 nl of the compounds were transferred in the assay plates. Master mixes containing 100 nM full-length wild type 14-3-3σ in the absence or presence of […]
(§3) Assay buffer was TRIS (10 mM, pH 8.0) and final volume per well was 50 μl, with final top concentration of compounds dose response series at 1 mM. The reaction mixtures were incubated for 1h at rt before subjected to MS. Four measurements (1h, 8h, 16h, 24h) were performed for time-course experiments. The injection volume for each sample was 6 μl. 24 μl of sample were needed for the time-course experiments, so the total volume in the assay plate was adjusted to 50 μl, to account for the dead volume in the injections. Data collection and automated processing followed a custom workflow, as previously described.1 z Plots were created using GraphPad Prism with the log(agonist) vs. response (variable slope, four parameters) fitting model. […]

14-3-3σ = biological target: T2, 14-3-3σ (Homo sapiens, UniProt P31947); experiment: Mass spectrometry dose response, compound binding to 14-3-3σ in the absence of peptide (apo); conditions: 100 nM compound, 100 nM 14-3-3σ
T2 construct: The 14-3-3 σ isoform (full-length for mass spectrometry and fluorescence anisotropy assays, ΔC for crystallography); made in house; host or cells: E. coli Rosetta 2(DE3)pLysS, pPROEX HTb vector
T2 sequence (P31947 1-248): T1 sequence (P31947 1-248)
Text: as §1, §2, §3

14-3-3σ/ERα [2] = biological target: T3, 14-3-3σ/ERα (Homo sapiens, UniProt P03372+P31947); experiment: Fluorescence anisotropy compound titration, FAM-labeled ERα peptide; assay type: binding; conditions: 10 nM ERα-FAM labeled peptide, 1 µM 14-3-3σ, overnight incubation (24 h); read-out: EC50 value ERα (FA compound titration)
T3 construct: The 14-3-3 σ isoform (full-length for mass spectrometry and fluorescence anisotropy assays, ΔC for crystallography); made in house; host or cells: E. coli Rosetta 2(DE3)pLysS, pPROEX HTb vector
Text: as §1
(§4) diluted in buffer (10 mM HEPES, pH 7.5, 150 mM NaCl, 0.1% Tween20, 1 mg/mL Bovine Serum Albumin (BSA; Sigma-Aldrich). Final DMSO in the assay was always 1%. Dilution series of 14-3-3 proteins or compounds were made in […]
(§5) Compound titrations were made by titrating the compound in a 2-fold dilution series (starting at 500 or 1000 µM) to a mix of fluorescein-labeled peptide (10 nM) and 14-3-3σ (concentration at approximately the EC20 to EC30 value of the protein-peptide complex; 1 µM for ERα and 5 µM for C-RAF). Using the ~EC25 value makes the assay sensitive for measuring an increase in PPI formation. Fluorescence anisotropy measurements were performed directly and after overnight incubation at room temperature. […]
(§6) Wells containing only FAM-peptide were used to set as G-factor at 35 mP. Data reported are at endpoint. EC50 and apparent Kd values were obtained from fitting the data with a four-parameter logistic model (4PL) in GraphPad Prism 7 for Windows. Data was obtained and averaged based on either three (compound titrations) or two (protein titrations) independent experiments.

14-3-3σ/C-RAF [3] = biological target: T1, 14-3-3σ/C-RAF; experiment: Fluorescence anisotropy compound titration, FAM-labeled C-RAF peptide; assay type: binding; conditions: 10 nM C-RAF-FAM labeled peptide, 5 µM 14-3-3σ, overnight incubation; read-out: EC50 value C-RAF (FA compound titration)
Text: as §1, §4, §5, §6

14-3-3σ/ERα [4] = biological target: T3, 14-3-3σ/ERα; experiment: Mass spectrometry dose response, compound binding to 14-3-3σ in the presence of ERα phosphopeptide; conditions: 100 nM compound, 100 nM 14-3-3σ, ERα-peptide 2 µM
Text: as §1, §2, §3

Row | SMILES | Percentage (%) bound of compound to 14-3-3σ, CRAF 1h (14-3-3σ/C-RAF [1]) [%] | Percentage (%) bound of compound to 14-3-3σ, CRAF 8h (14-3-3σ/C-RAF [1]) [%] | Percentage (%) bound of compound to 14-3-3σ, CRAF 24h (14-3-3σ/C-RAF [1]; 24h) [%] | Percentage (%) bound of compound to 14-3-3σ, CRAF 24h (14-3-3σ/C-RAF [1]; head prints 24h) [%] | Percentage (%) bound of compound to 14-3-3σ, APO 1h (14-3-3σ) [%] | Percentage (%) bound of compound to 14-3-3σ, APO 8h (14-3-3σ) [%] | Percentage (%) bound of compound to 14-3-3σ, APO 16h (14-3-3σ) [%] | Percentage (%) bound of compound to 14-3-3σ, APO 24h (14-3-3σ) [%] | EC50 (14-3-3σ/ERα [2]) [µM] | EC50 (14-3-3σ/C-RAF [3]) [µM] | Percentage (%) bound of compound to 14-3-3σ, ERα 1h (14-3-3σ/ERα [4]) [%] | Percentage (%) bound of compound to 14-3-3σ, ERα 8h (14-3-3σ/ERα [4]) [%] | Percentage (%) bound of compound to 14-3-3σ, ERα 16h (14-3-3σ/ERα [4]) [%] | Percentage (%) bound of compound to 14-3-3σ, ERα 24h (14-3-3σ/ERα [4]) [%]
1 | CC1(C)CC(Nc2ccc(Cl)cc2)(C(=O)N2CCC(CNC(=O)CCl)CC2)CC(C)(C)O1 [compound 179] | 0 | 0 | 1.0 | 0 | 0 | 0 | 0.3 | 0.4 | 23 ± 2 | > 150 | 1.5 | 3.0 | 6.4 | 11.8
2 | CC(C)(Oc1ccc(Cl)cc1)C(=O)N1CCC(CNC(=O)CCl)CC1 [compound 27] | 4.1 | 10.6 | 28.3 | 19.2 | 0.0 | 1.0 | 1.4 | 2.0 | 19 ± 1 | 16 ± 4 | 1.4 | 6.4 | 14.6 | 30.6
3 | O=C(CCl)N1CCC2(CC1)CN(C(=O)C1(Nc3ccc(Cl)cc3)CCOCC1)C2 [compound 161] | 0 | 0.6 | 2.1 | 1.0 | 0 | 0 | 0.5 | 1.0 | 22 ± 1 | > 150 | 4.7 | 7.8 | 14.9 | 39.8
4 | CC(C)(Nc1ccc(Cl)cc1)C(=O)N1CCC(CNC(=O)CCl)CC1 [compound 84] | 0.8 | 1.0 | 3.3 | 2.9 | 0 | 0 | 1.0 | 5.8 | 55 ± 2 | > 150 | 0.9 | 2.8 | 7.5 | 19.0
5 | O=C(CCl)NCCC1CCN(C(=O)C2(Nc3ccc(Cl)cc3)CCNCC2)CC1 [compound 151] | 0 | 1.0 | 3.7 | 1.5 | 0 | 0 | 1.8 | 2.2 | 16 ± 2 |  | 6.5 | 20.6 | 48.0 | 75.0

Continued, values first:

Row | Percentage (%) bound of compound to 14-3-3σ, CRAF 1h (14-3-3σ/C-RAF [1]) [%] | Percentage (%) bound of compound to 14-3-3σ, CRAF 8h (14-3-3σ/C-RAF [1]) [%] | Percentage (%) bound of compound to 14-3-3σ, CRAF 24h (14-3-3σ/C-RAF [1]; 24h) [%] | Percentage (%) bound of compound to 14-3-3σ, CRAF 24h (14-3-3σ/C-RAF [1]; head prints 24h) [%] | Percentage (%) bound of compound to 14-3-3σ, APO 1h (14-3-3σ) [%] | Percentage (%) bound of compound to 14-3-3σ, APO 8h (14-3-3σ) [%] | Percentage (%) bound of compound to 14-3-3σ, APO 16h (14-3-3σ) [%] | Percentage (%) bound of compound to 14-3-3σ, APO 24h (14-3-3σ) [%] | EC50 (14-3-3σ/ERα [2]) [µM] | EC50 (14-3-3σ/C-RAF [3]) [µM] | Percentage (%) bound of compound to 14-3-3σ, ERα 1h (14-3-3σ/ERα [4]) [%] | Percentage (%) bound of compound to 14-3-3σ, ERα 8h (14-3-3σ/ERα [4]) [%] | Percentage (%) bound of compound to 14-3-3σ, ERα 16h (14-3-3σ/ERα [4]) [%] | Percentage (%) bound of compound to 14-3-3σ, ERα 24h (14-3-3σ/ERα [4]) [%] | SMILES
6 | 4.9 | 7.6 | 23.2 | 12.4 | 0.4 | 1.1 | 2.1 | 6.2 | 12 ± 2 | > 150 | 13.8 | 30.0 | 64.6 | 87.5 | O=C(CCl)NCC1CCN(C(=O)C2(Nc3ccc(Cl)cc3)CCC(F)(F)CC2)CC1 [compound 125]
7 | 0.4 | 0.6 | 2.6 | 1.9 | 0.9 | 2.0 | 2.4 | 4.8 | 30 ± 1 | > 150 | 16.5 | 31.4 | 58.4 | 82.6 | Cl.O=C(CCl)NCC1CCN(C(=O)C2(Oc3ccc(Cl)cc3)CCNCC2)CC1 [compound 129]
8 | 1.0 | 1.9 | 3.5 | 1.9 | 0.0 | 1.0 | 1.0 | 1.9 | 8 ± 1 | 59 ± 4 | 3.4 | 8.3 | 20.8 | 63.9 | O=C(CCl)NCC1CCN(C(=O)C2(Nc3ccc(Cl)cc3)CCCCC2)CC1 [compound 123]
9 | 0 | 0 | 1.0 | 0 | 0 | 0 | 2.0 | 2.0 | > 150 |  | 0 | 0 | 0 | 1.0 | Cl.NC1CCC(Oc2ccccc2)(C(=O)N2CCC(CNC(=O)CCl)CC2)CC1 (stereo not shown) [compound 139]
